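Five concentrations, 48 hours, 96-well plates. GI50 is the concentration that inhibits growth by half. TGI is the concentration that stops growth completely.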
Key:
Test in all cases: NCI tumour cell line growth inhibition, 48 h
786-0 renal = system: 786-0 renal
A498 renal = system: A498 renal
A549 NSCLC = system: A549 NSCLC
ACHN renal = system: ACHN renal
BT-549 breast = system: BT-549 breast
CAKI-1 renal = system: CAKI-1 renal
CCRF-CEM leukemia = system: CCRF-CEM leukemia
COLO 205 colon = system: COLO 205 colon
DU-145 prostate = system: DU-145 prostate
EKVX NSCLC = system: EKVX NSCLC
HCC-2998 colon = system: HCC-2998 colon
HCT-116 colon = system: HCT-116 colon
HCT-15 colon = system: HCT-15 colon
HL-60(TB) leukemia = system: HL-60(TB) leukemia
HOP-62 NSCLC = system: HOP-62 NSCLC
HOP-92 NSCLC = system: HOP-92 NSCLC
HS 578T breast = system: HS 578T breast
HT29 colon = system: HT29 colon
IGROV1 ovarian = system: IGROV1 ovarian
K-562 leukemia = system: K-562 leukemia
KM12 colon = system: KM12 colon
LOX IMVI melanoma = system: LOX IMVI melanoma
M14 melanoma = system: M14 melanoma
MALME-3M melanoma = system: MALME-3M melanoma
MCF7 breast = system: MCF7 breast
MDA-MB-231 breast = system: MDA-MB-231 breast
MDA-MB-435 = system: MDA-MB-435
MOLT-4 leukemia = system: MOLT-4 leukemia
NCI-H226 lung = system: NCI-H226 lung
NCI-H460 lung = system: NCI-H460 lung
NCI-H522 lung = system: NCI-H522 lung
NCI/ADR-RES ovarian = system: NCI/ADR-RES ovarian
OVCAR-4 ovarian = system: OVCAR-4 ovarian
OVCAR-5 ovarian = system: OVCAR-5 ovarian
OVCAR-8 ovarian = system: OVCAR-8 ovarian
PC-3 prostate = system: PC-3 prostate
RPMI-8226 leukemia = system: RPMI-8226 leukemia
RXF 393 renal = system: RXF 393 renal
SF-268 CNS = system: SF-268 CNS
SF-295 CNS = system: SF-295 CNS
SF-539 CNS = system: SF-539 CNS
SK-MEL-2 melanoma = system: SK-MEL-2 melanoma
SK-MEL-28 melanoma = system: SK-MEL-28 melanoma
SK-MEL-5 melanoma = system: SK-MEL-5 melanoma
SK-OV-3 ovarian = system: SK-OV-3 ovarian
SN12C renal = system: SN12C renal
SNB-19 CNS = system: SNB-19 CNS
SNB-75 CNS = system: SNB-75 CNS
SR leukemia = system: SR leukemia
SW-620 colon = system: SW-620 colon
T-47D breast = system: T-47D breast
TK-10 renal = system: TK-10 renal
U251 CNS = system: U251 CNS
UACC-257 melanoma = system: UACC-257 melanoma
UACC-62 melanoma = system: UACC-62 melanoma
UO-31 renal = system: UO-31 renal

SMILES: CCNC(=O)Oc1ccc(/C(=C(/C)c2ccc(Cl)cc2)c2ccc(OCCN3CCCCCC3)cc2)cc1
- GI50 (786-0 renal): 1610 nM
- TGI (786-0 renal): 3020 nM
- GI50 (A498 renal): 1750 nM
- TGI (A498 renal): 3780 nM
- GI50 (A549 NSCLC): 1700 nM
- TGI (A549 NSCLC): 3270 nM
- GI50 (ACHN renal): 1750 nM
- TGI (ACHN renal): 3200 nM
- GI50 (BT-549 breast): 1740 nM
- TGI (BT-549 breast): 3140 nM
- GI50 (CAKI-1 renal): 1640 nM
- TGI (CAKI-1 renal): 3090 nM
- GI50 (CCRF-CEM leukemia): 1640 nM
- TGI (CCRF-CEM leukemia): 9810 nM
- GI50 (COLO 205 colon): 1740 nM
- TGI (COLO 205 colon): 3180 nM
- GI50 (DU-145 prostate): 2290 nM
- TGI (DU-145 prostate): 5370 nM
- GI50 (EKVX NSCLC): 1910 nM
- TGI (EKVX NSCLC): 4770 nM
- GI50 (HCC-2998 colon): 1720 nM
- TGI (HCC-2998 colon): 3160 nM
- GI50 (HCT-116 colon): 1620 nM
- TGI (HCT-116 colon): 3000 nM
- GI50 (HCT-15 colon): 1500 nM
- TGI (HCT-15 colon): 2910 nM
- GI50 (HL-60(TB) leukemia): 1820 nM
- TGI (HL-60(TB) leukemia): 4450 nM
- GI50 (HOP-62 NSCLC): 1550 nM
- TGI (HOP-62 NSCLC): 3000 nM
- GI50 (HOP-92 NSCLC): 1410 nM
- TGI (HOP-92 NSCLC): 2860 nM
- GI50 (HS 578T breast): 1950 nM
- TGI (HS 578T breast): 4260 nM
- GI50 (HT29 colon): 1700 nM
- TGI (HT29 colon): 3270 nM
- GI50 (IGROV1 ovarian): 1800 nM
- TGI (IGROV1 ovarian): 3410 nM
- GI50 (K-562 leukemia): 1390 nM
- TGI (K-562 leukemia): 3950 nM
- GI50 (KM12 colon): 2630 nM
- TGI (KM12 colon): 6800 nM
- GI50 (LOX IMVI melanoma): 1690 nM
- TGI (LOX IMVI melanoma): 3120 nM
- GI50 (M14 melanoma): 1700 nM
- TGI (M14 melanoma): 3130 nM
- GI50 (MALME-3M melanoma): 1780 nM
- TGI (MALME-3M melanoma): 3420 nM
- GI50 (MCF7 breast): 404 nM
- TGI (MCF7 breast): 2320 nM
- GI50 (MDA-MB-231 breast): 1840 nM
- TGI (MDA-MB-231 breast): 3480 nM
- GI50 (MDA-MB-435): 1770 nM
- TGI (MDA-MB-435): 3240 nM
- GI50 (MOLT-4 leukemia): 2100 nM
- TGI (MOLT-4 leukemia): 6060 nM
- GI50 (NCI-H226 lung): 2610 nM
- TGI (NCI-H226 lung): 8200 nM
- GI50 (NCI-H460 lung): 1750 nM
- TGI (NCI-H460 lung): 3240 nM
- GI50 (NCI-H522 lung): 1780 nM
- TGI (NCI-H522 lung): 3460 nM
- GI50 (NCI/ADR-RES ovarian): 1840 nM
- TGI (NCI/ADR-RES ovarian): 3750 nM
- GI50 (OVCAR-4 ovarian): 1960 nM
- TGI (OVCAR-4 ovarian): 4550 nM
- GI50 (OVCAR-5 ovarian): 1990 nM
- TGI (OVCAR-5 ovarian): 4380 nM
- GI50 (OVCAR-8 ovarian): 1780 nM
- TGI (OVCAR-8 ovarian): 3400 nM
- GI50 (PC-3 prostate): 1780 nM
- TGI (PC-3 prostate): 3530 nM
- GI50 (RPMI-8226 leukemia): 1800 nM
- TGI (RPMI-8226 leukemia): 3930 nM
- GI50 (RXF 393 renal): 1460 nM
- TGI (RXF 393 renal): 2930 nM
- GI50 (SF-268 CNS): 2200 nM
- TGI (SF-268 CNS): 5540 nM
- GI50 (SF-295 CNS): 1600 nM
- TGI (SF-295 CNS): 2970 nM
- GI50 (SF-539 CNS): 1720 nM
- TGI (SF-539 CNS): 3140 nM
- GI50 (SK-MEL-2 melanoma): 1770 nM
- TGI (SK-MEL-2 melanoma): 3330 nM
- GI50 (SK-MEL-28 melanoma): 1740 nM
- TGI (SK-MEL-28 melanoma): 3180 nM
- GI50 (SK-MEL-5 melanoma): 1680 nM
- TGI (SK-MEL-5 melanoma): 3050 nM
- GI50 (SK-OV-3 ovarian): 1870 nM
- TGI (SK-OV-3 ovarian): 3700 nM
- GI50 (SN12C renal): 1670 nM
- TGI (SN12C renal): 3180 nM
- GI50 (SNB-19 CNS): 2500 nM
- TGI (SNB-19 CNS): 6880 nM
- GI50 (SNB-75 CNS): 1990 nM
- TGI (SNB-75 CNS): 4020 nM
- GI50 (SR leukemia): 1350 nM
- TGI (SR leukemia): 4910 nM
- GI50 (SW-620 colon): 1710 nM
- TGI (SW-620 colon): 3220 nM
- GI50 (T-47D breast): 1390 nM
- TGI (T-47D breast): 4190 nM
- GI50 (TK-10 renal): 2270 nM
- TGI (TK-10 renal): 6750 nM
- GI50 (U251 CNS): 1490 nM
- TGI (U251 CNS): 2860 nM
- GI50 (UACC-257 melanoma): 1710 nM
- TGI (UACC-257 melanoma): 3300 nM
- GI50 (UACC-62 melanoma): 1790 nM
- TGI (UACC-62 melanoma): 3280 nM
- GI50 (UO-31 renal): 1440 nM
- TGI (UO-31 renal): 2790 nM
